These results are taken from BindingDB's records for patent US12503453 (Dana-Farber Cancer Institute, 2025).

This experiment concerns the target Ubiquitin carboxyl-terminal hydrolase 7 (Homo sapiens, UniProt Q93009). The experiment is described as follows: Ub-AMC Enzymatic and Kinetic Assays. The method, then: Full length USP7 was tested for its activity in Ubiquitin-AMC assay in presence or absence of inhibitors. USP7 (5 nM) was pre-incubated for 6 hours at room temperature with different concentrations of inhibitors or DMSO as a control in 50 mM HEPES pH 7.5, 0.5 mM EDTA, 11 μM ovalbumin, and 5 mM DTT. Ubiquitin-AMC (Boston Biochem) was then added to a final concentration of 500 nM. The initial rate of the reaction was measured by collecting fluorescence data at one minute intervals over 30-minute period using a Clariostar fluorescence plate reader at excitation and emission wavelength of 345 and 445 nm respectively. The calculated initial rate values were plotted against inhibitor concentrations to determine IC50s. All the experimental data were plotted using Prism GraphPad. All assays for each compound were performed at least twice for each compound.

Sequence of Ubiquitin carboxyl-terminal hydrolase 7 (Q93009 whole entry): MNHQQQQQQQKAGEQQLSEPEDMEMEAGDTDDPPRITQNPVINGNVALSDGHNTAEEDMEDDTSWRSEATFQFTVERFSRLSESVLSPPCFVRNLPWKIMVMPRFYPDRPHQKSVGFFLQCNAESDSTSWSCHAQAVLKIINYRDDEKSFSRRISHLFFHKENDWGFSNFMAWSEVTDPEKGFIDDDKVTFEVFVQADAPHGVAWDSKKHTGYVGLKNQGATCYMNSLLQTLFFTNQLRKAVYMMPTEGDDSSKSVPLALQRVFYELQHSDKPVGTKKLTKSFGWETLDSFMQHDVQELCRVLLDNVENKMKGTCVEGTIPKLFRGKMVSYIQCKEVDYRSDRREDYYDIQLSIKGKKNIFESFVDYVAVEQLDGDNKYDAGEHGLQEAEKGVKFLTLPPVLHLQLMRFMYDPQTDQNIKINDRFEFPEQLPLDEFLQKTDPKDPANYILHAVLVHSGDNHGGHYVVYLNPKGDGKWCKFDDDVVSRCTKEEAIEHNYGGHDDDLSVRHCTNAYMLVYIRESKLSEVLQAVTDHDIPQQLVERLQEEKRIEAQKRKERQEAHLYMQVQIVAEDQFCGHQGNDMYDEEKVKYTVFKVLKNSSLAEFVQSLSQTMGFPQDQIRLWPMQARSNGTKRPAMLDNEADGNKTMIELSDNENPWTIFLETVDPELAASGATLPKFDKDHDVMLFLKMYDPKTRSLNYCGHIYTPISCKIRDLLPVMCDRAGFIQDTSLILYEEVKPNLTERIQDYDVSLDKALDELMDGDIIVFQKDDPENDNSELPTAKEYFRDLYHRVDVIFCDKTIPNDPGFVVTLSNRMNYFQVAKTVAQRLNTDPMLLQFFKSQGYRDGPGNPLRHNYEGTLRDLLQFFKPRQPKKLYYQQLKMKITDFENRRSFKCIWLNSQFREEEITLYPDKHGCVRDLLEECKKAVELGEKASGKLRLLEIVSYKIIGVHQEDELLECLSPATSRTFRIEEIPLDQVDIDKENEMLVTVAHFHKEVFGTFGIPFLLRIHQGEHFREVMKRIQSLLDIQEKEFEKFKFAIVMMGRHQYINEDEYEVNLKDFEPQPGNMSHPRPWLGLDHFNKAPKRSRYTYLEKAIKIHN

Broadly, the IC50 is the midpoint of a concentration-inhibition curve. Lower therefore signals higher potency. Compound `CN1CCN(CCC(=O)Nc2ccc3c(=O)n(CC4(O)CCN(C(=O)C(CCCNC(=O)C5CCN(C#N)C5)Cc5ccccc5)CC4)cnc3c2)CC1` (stereo unspecified) [US12503453, Compound Table1.19] gave an IC50 of over 1000 nM.
